# Several values for one entry are separate records, joined by “and”; a condition that tells them apart may be missing. Identical values can stand only once. Entries after “also recorded” stand apart in the source; their conditions may differ.
# Tests used:
# β2AR [1] = molecular target: T1, β2AR (Homo sapiens, UniProt P07550); experiment: cAMP FRET sensor (TEpacVV) agonist assay in HEK 293 cells; type: cell-based; conditions: HEK 293 expressing 3′,5′-cAMP FRET sensor, 30 min incubation, room temperature; for EC50: read-out: EC50 (mean ± SD)
# Experimental: Upon cAMP binding, the sensor undergoes a conformational change resulting in a decrease of the FRET efficiency between two fluorescent proteins: mTurquoise - a version of cyan fluorescent protein (CFP) as the donor, and yellow fluorescent protein (YFP) as the acceptor (Fig. 3a).
# The intracellular cyclic adenosine monophosphate (cAMP) levels were determined with HEK 293 cells expressing a 3′,5′-cAMP FRET sensor. The cells were a generous gift from Ruud Hovius from École poly-technique fédérale de Lausanne (EPFL). The cAMP production induces a conformational switch in ^TEpac^VV and causes a decrease in FRET efficiency, i.e. a decreased energy transfer between the two fluorescent proteins (donor mTurquoise and acceptor YFP)[32].
# (§1) The culture was maintained by subculturing the cells every 4 to 5 days using the standard trypsinization procedure. Before measurements, cells were trypsinated and transferred in a 96-well glass bottom plate (MatTek Corporation; Cat. No. P96GC-1.5–5-F) to contain 10,000–30,000 cells per well in 200 µL of DMEM media. After 24 h incubation in 5% CO2 at 37 °C, the cells were washed with HBSS pH 7.2 (200 µL), and the wells were filled with 200 µL HBSS. The DMSO stock solutions of the fluorescent probes were diluted 5,000 times in HBSS and used in experiments. […] The fluorescent ligand solutions of different concentrations in HBSS were premixed with the isoprenaline solution. 50 µL of a final solution was added to each well and the measurement was started upon addition and continued for 1 h in 10 min intervals between the readouts (inclusive).
# (§2) The ligands were added using an automated pipette to initiate the sensor response. FRET readout from the cAMP sensor was performed on a multiwell plate reader Spark 20 M (Tecan) at room temperature (25 °C). Fluorescence readout amplitudes were calculated from time series for different ligand concentrations, following background subtraction (media only). […] Data were derived from 3 independent experiments and each independent experiment was performed in triplicate.
# (§3) Sensor response R(CFP/FRET) was calculated using (1):1 R(CFP/FRET)=(FimTurquoise−FbkgmTurquoise)/(FiFRET−FbkgFRET) where F i ^mTurquoise – mTurquoise fluorescence intensity in the wells with cells; F bkg ^mTurquoise - mTurquoise fluorescence intensity in the control wells without cells; F i ^FRET – FRET signal intensity in the wells with cells; F bkg ^FRET – FRET signal intensity in the control wells without cells. For every result, R(CFP/FRET) ratio was normalized to the R(CFP/FRET) response of DMSO sample.
# [2] = Fluorescence increase upon addition of SDS to probe solutions; type: physicochemical; conditions: addition of 0.1% SDS to ligand in PBS pH 7.4 with 1 mg/ml BSA; mean ± SD, n=3
# Experimental: Fluorescence spectra of 1 µM solution of fluorescent dyes and ligands in PBS pH 7.4, PBS pH 7.4 + 1 mg/ml BSA (Sigma) and with or without 0.1% SDS (Acros Organics) were recorded on a multiwell plate reader Spark 20 M (Tecan) in half-area black 96-well plates (Greiner Bio-One, cat. 675076) at room temperature (25 °C) after 2 h incubation. Fluorescence emission was recorded from 600 nm to 800 nm with excitation at 580 nm. The emission bandwidth for all measurements was set to 5 nm. The spectra were averaged from 3 individual experiments. Ratios F(BSA+SDS)/F(BSA) of fluorescence signals at 635 nm for 610CP, 645 nm for BODIPY 630/650-X and 655 nm for KK114 conjugates were calculated. The obtained results are summarized (Table 1 and Supplementary Fig. 7).
# β2AR-YFP fusion protein [3] = molecular target: T2, β2AR-YFP fusion protein (Homo sapiens, UniProt P07550); experiment: Confocal imaging of living U2OS cells expressing β2AR-YFP (staining, internalization, competitive displacement, no-wash); type: cell-based; conditions: for Receptor internalization / Staining performance: U2OS cells expressing β2AR-YFP; for Staining performance: 610CP ligands at 1.9 µM (19) and 2.5 µM (16)
# T2 construct: host or cells: U2OS
# Experimental: U2OS cells (ATCC) were cultured in high-glucose DMEM (Dulbecco’s Modified Eagle medium, Thermo Fisher Scientific) supplemented with GlutaMAX-1 (Thermo Fisher Scientific) and 10% fetal bovine serum (FBS) (Thermo Fisher Scientific) in a humidified 5% CO2 incubator at 37 °C. CAPAN-1 cells (ATCC) were cultured in McCoy’s 5a Medium Modified supplemented with 10% fetal bovine serum (FBS) (Thermo Fisher Scientific) in a humidified 5% CO2 atmosphere at 37 °C. Cells were split every 3–5 days or at confluence. Cells were seeded in glass bottom 12-well plates (MatTek Corporation). […] We used 200,000 cells per well, 3 µg plasmid DNA and 3 µl of Lipofectamine 2000.
# We performed imaging 48–72 h after transfection. Staining of the transfected cell was performed in Hanks’ balanced salt solution (HBSS, Lonza) without Phenol Red for 30–40 min at room temperature (to minimize internalization). Samples were washed two times with HBSS, and cells were imaged in DMEM (Thermo Fisher Scientific) supplemented with GlutaMAX-1 (Thermo Fisher Scientific) and 10% fetal bovine serum (FBS). For all staining experiments with cells, stock solutions of dyes in DMSO were used, and final DMSO content was < 0.5%. Imaging was performed on Leica SP8 (Leica Microsystems) or Abberior STED (Abberior Instruments GmbH) microscopes.
# Competitive displacement experiment was performed in living U2OS cells expressing β2AR-YFP fusion protein.
# Confocal imaging was performed on a Leica SP8 (Leica Microsystems, Mannheim, Germany) inverted confocal microscope equipped with an HC PL APO CS2 63x/1.40 Oil objective. Images were acquired using a 700 Hz bidirectional scanner, pixel size of 70 nm × 70 nm, pinhole of 95.6 µm diameter(1 AU) and frame averaging of 2.
# β1- and β2-adrenoceptors = tested on: β1- and β2-adrenoceptors; set-up: method as in PMID 19875286; conditions: racemic BI-167107; cited from earlier work
# [4] = pH dependence of ligand fluorescence; type: physicochemical
# Experimental: pH dependence of βAR ligands fluorescence were recorded on a multiwell plate reader Spark 20 M (Tecan) in 96-well glass bottom plates (MatTek Corporation; Cat. No. PBK96G-1.5-5-F) in PBS solutions (pH 4.7–8.0) at room temperature (25 °C). The 100x stock solutions of ligands were prepared in DMSO.
# β2AR [5] = molecular target: T1, β2AR; experiment: Staining and competitive binding in CAPAN-1 cells at endogenous β2AR expression; type: cell-based; conditions: 100 nM probe (5 nM ab118171) with 10 µM BI-167107 or carazolol
# Experimental: To study the selectivity of β2AR staining at the endogenous expression levels, which are much lower compared to those in transiently β2AR expressing U2OS cells, we tested the performance of BI-167107 probes in pancreatic CAPAN-1 cells (Fig. 7c–f). […] Low density of β2AR in the plasma membrane of CAPAN-1 cells allowed us to measure of the lateral resolution in the STED images. When the cells were incubated with 100 nM BI-PEG-KK114 (18) ligand, we observed two-fold improvement in the resolution resulting in apparent structures of ~100 nm (Fig. 7d; Supplementary Table 4).
# For staining of CAPAN-1 cells, fluorescent probes or mixtures of a probe and a competitor were incubated in McCoy’s 5a Medium Modified supplemented with 10% fetal bovine serum (FBS) for 30–40 min at room temperature. Afterwards, the samples were washed two times with HBSS, and cells were imaged in DMEM (Thermo Fisher Scientific) supplemented with GlutaMAX-1 (Thermo Fisher Scientific) and 10% fetal bovine serum (FBS). Imaging performed on Leica SP8 (Leica Microsystems) or Abberior STED (Abberior Instruments GmbH) microscopes.
# β2AR [6] = molecular target: T1, β2AR; experiment: cAMP FRET sensor assay, competitive displacement of isoprenaline by antagonists in HEK293 cells; type: cell-based
# Experimental: as §1, with “experiments. In the antagonist inhibition experiment, we used β1 and β2 adrenoceptor agonist isoprenaline (abcr GmbH) as a positive control causing cAMP elevation.” for “experiments.”
# as §2, §3
# K i ^app were calculated using the Cheng-Prusoff equation (2):2 Kiapp=IC50/[A]/EC50+1 where [A] – concentration of the isoprenaline; IC50 – fitted half maximal inhibitory concentration of labeled antagonist; EC50 – fitted half maximal response concentration of isoprenaline.
# β2AR-YFP fusion protein [7] = molecular target: T2, β2AR-YFP fusion protein; experiment: Confocal imaging of living U2OS cells expressing β2AR-YFP (staining, internalization, competitive displacement, no-wash); type: cell-based; conditions: 90 min, 100 nM carazolol-KK114 (24), 5 nM ab118171, no washing
# [8] = U2OS β2AR-YFP, 40 min, room temperature, washed
# T1 sequence (P07550 whole entry): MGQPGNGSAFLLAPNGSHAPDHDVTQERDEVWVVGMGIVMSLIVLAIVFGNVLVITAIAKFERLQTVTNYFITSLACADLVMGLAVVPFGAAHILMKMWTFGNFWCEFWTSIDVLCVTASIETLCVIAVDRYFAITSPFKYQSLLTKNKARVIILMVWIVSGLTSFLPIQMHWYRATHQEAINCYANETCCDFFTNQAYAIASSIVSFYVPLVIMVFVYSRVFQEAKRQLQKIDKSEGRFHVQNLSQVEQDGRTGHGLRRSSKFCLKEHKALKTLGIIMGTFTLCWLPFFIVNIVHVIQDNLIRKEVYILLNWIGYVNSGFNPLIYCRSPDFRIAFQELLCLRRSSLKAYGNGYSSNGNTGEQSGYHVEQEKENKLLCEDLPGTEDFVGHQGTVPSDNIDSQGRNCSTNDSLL
# T2 sequence (P07550 whole entry, the tested form may be a part): as the sequence (P07550 whole entry) above
"EC50 (mean ± SD, nM) (β2AR [1])",EC50 (β2AR [1]),Fluorescence increase (F BSA+SDS / F BSA) [2],Receptor internalization (β2AR-YFP fusion protein [3]),Staining performance (β2AR-YFP fusion protein [3]),fluorescence decrease ([4]; at pH 4.7 and 8.0 versus pH 6.0–7.0),"Competitive displacement (β2AR-YFP fusion protein [3]; U2OS β2AR-YFP, 100 nM probe (5 nM ab118171) with 10 µM unlabeled BI-167107 or carazolol, 30 min)",confocal staining at 100 nM (β2AR-YFP fusion protein [3]; [8]),confocal staining at 250 nM (β2AR-YFP fusion protein [3]; [8]),fluorescence reduction ([4]; pH 7.0 compared to pH 4.7),"IC50 (β2AR [6]; displacement of 17 nM isoprenaline, readout immediately after addition of ligands (0 min), read-out: IC50 (mean ± SD)) [pM]",Ki (β2AR [6]; read-out: Ki app (mean ± SD)) [pM],no-wash imaging staining (β2AR-YFP fusion protein [7]),"confocal staining at 5 nM (β2AR-YFP fusion protein [3]; U2OS β2AR-YFP, 5 nM, 40 min, room temperature, washed)",Compound,agonist classification at β-adrenoceptors (β1- and β2-adrenoceptors),competitive binding with excess unlabeled ligand (β2AR [5])
low nanomolar,600 pM and 620 pM,1.2±0.3,,None,,,,,,,,,,Cc1c(CCC(=O)NCCOCCOCCNC(=O)c2ccc(C(=O)[O-])c(C3=C4C=CC(=[N+](C)C)C=C4C(C)(C)c4cc(N(C)C)ccc43)c2)cccc1CC(C)(C)NCC(O)c1ccc(O)c2c1OCC(=O)N2 (stereo not drawn) [BI-PEG-610CP (19)],,
,200 pM and 180 pM,10.5±1.7,Yes,Strong,about 40%,Low background fluorescence,labelled the cells efficiently,unspecific fluorescence,,,,,,Cc1c(CCC(=O)NCCOCCOCCNC(=O)CCCCCNC(=O)COc2ccc(/C=C/C3=[N+]4C(=Cc5ccc(-c6cccs6)n5[B-]4(F)F)C=C3)cc2)cccc1CC(C)(C)NCC(O)c1ccc(O)c2c1OCC(=O)N2 (stereo not drawn) [BI-PEG-BDY630 (17)],,strong off-target staining
,,8.2±3.9,Weak,Strong,,,non-specific dotted background,non-specific dotted background,almost two-fold,74700 ± 36300,4800 ± 3600,strong off-target staining,specific membrane localized fluorescence,"CC(C)(CCNC(=O)CCOCCOCCNC(=O)COc1ccc(/C=C/C2=[N+]3C(=Cc4ccc(-c5cccs5)n4[B-]3(F)F)C=C2)cc1)NC[C@H](O)COc1cccc2[nH]c3ccccc3c12 [ab118171, reference compound]",,not possible to achieve full displacement

# Continued, compound first:
Compound,"EC50 (mean ± SD, nM) (β2AR [1])",EC50 (β2AR [1]),Fluorescence increase (F BSA+SDS / F BSA) [2],Receptor internalization (β2AR-YFP fusion protein [3]),Staining performance (β2AR-YFP fusion protein [3]),fluorescence decrease ([4]; at pH 4.7 and 8.0 versus pH 6.0–7.0),"Competitive displacement (β2AR-YFP fusion protein [3]; U2OS β2AR-YFP, 100 nM probe (5 nM ab118171) with 10 µM unlabeled BI-167107 or carazolol, 30 min)",confocal staining at 100 nM (β2AR-YFP fusion protein [3]; [8]),confocal staining at 250 nM (β2AR-YFP fusion protein [3]; [8]),fluorescence reduction ([4]; pH 7.0 compared to pH 4.7),"IC50 (β2AR [6]; displacement of 17 nM isoprenaline, readout immediately after addition of ligands (0 min), read-out: IC50 (mean ± SD)) [pM]",Ki (β2AR [6]; read-out: Ki app (mean ± SD)) [pM],no-wash imaging staining (β2AR-YFP fusion protein [7]),"confocal staining at 5 nM (β2AR-YFP fusion protein [3]; U2OS β2AR-YFP, 5 nM, 40 min, room temperature, washed)",agonist classification at β-adrenoceptors (β1- and β2-adrenoceptors),competitive binding with excess unlabeled ligand (β2AR [5])
Cc1c(CCC(=O)NCCCCNC(=O)c2ccc(C(=O)[O-])c(C3=C4C=CC(=[N+](C)C)C=C4C(C)(C)c4cc(N(C)C)ccc43)c2)cccc1CC(C)(C)NCC(O)c1ccc(O)c2c1OCC(=O)N2 (stereo not drawn) [BI-4C-610CP (16)],low nanomolar,7300 ± 1400 pM,1.5±0.4,Yes,satisfactory images; also recorded: Medium,,,,,,,,,,,
Cc1ccccc1CC(C)(C)NCC(O)c1ccc(O)c2c1OCC(=O)N2 (stereo not drawn) [BI-167107],,,,,,,,,,,,,,,full agonist,
